The values below are quoted from earlier work in patent US20240216299A1, “TRANSMUCOSAL THERAPEUTIC SYSTEM CONTAINING AGOMELATINE” (LTS LOHMANN Therapie-Systeme AG, priority 2019, published 2024).

SMILES strings stand for the structures.

The mark [1] stands for this setting: patients with moderate hepatic impairment compared to healthy subjects.

Take `COc1ccc2cccc(CCNC(C)=O)c2c1` [agomelatine, N-(2-(7-Methoxy-1-naphthyl)ethyl)acetamide]: where the note is “oral”, the oral absorption is listed as above 80% and the overall bioavailability result was “less than 5%”. Under setting [1], the “increase in AUC” value was “up to 140 fold” and the “increase in Cmax” value was “up to 140 fold”.
